Assay results as given in article PMC11995724, “Antibiotic target discovery by integrated phenotypic and activity-based profiling of electrophilic fragments” (Cell chemical biology, 2025).

Experiment: in vitro
Details: human, hek293t cells

| SMILES | viability at 48 h, 25 µM [%] |
| --- | --- |
| C=CC(=O)NC1(c2ccc(C(F)(F)F)cc2)CCCC1 [2-E04, N-{1-[4-(trifluoromethyl)phenyl]cyclopentyl}prop-2-enamide] | 82.6 |
| C=CC(=O)NC[C@@H]1C[C@H](F)CN1Cc1ccnn1C [2-E05, N-{[(2S,4S)-4-fluoro-1-[(1-methyl-1H-pyrazol-5-yl)methyl]pyrrolidin-2-yl]methyl}prop-2-enamide] | 78.5 |
| C=CC(=O)Nc1ccc(S(=O)(=O)N(C)C)c(C)c1 [2-E06, N-[4-(dimethylsulfamoyl)-3-methylphenyl]prop-2-enamide] | 78.7 |
| C=CC(=O)N(Cc1cc(C)cc2c(C)c(C)[nH]c12)CC1(C)COC1 [2-E07, N-[(3-methyloxetan-3-yl)methyl]-N-[(2,3,5-trimethyl-1H-indol-7-yl)methyl]prop-2-enamide] | 80.6 |
| C=CC(=O)N1CCC(n2cc(CO)nn2)C1 (centres unmarked) [2-E08, 1-{3-[4-(hydroxymethyl)-1H-1,2,3-triazol-1-yl]pyrrolidin-1-yl}prop-2-en-1-one] | 81.8 |
| C=CC(=O)N1CCC(c2nc(C3CC3)no2)C1 (centres unmarked) [2-E09, 1-[3-(3-cyclopropyl-1,2,4-oxadiazol-5-yl)pyrrolidin-1-yl]prop-2-en-1-one] | 70 |
| C=CC(=O)Nc1cc(NC(=O)C2CCC2)ccc1F [2-E10, N-[4-fluoro-3-(prop-2-enamido)phenyl]cyclobutanecarboxamide] | 86.7 |
| C=CC(=O)NC1CN(S(=O)(=O)c2ccc3c(c2)OCCO3)C1 [2-E11, N-[1-(2,3-dihydro-1,4-benzodioxine-6-sulfonyl)azetidin-3-yl]prop-2-enamide] | 79.7 |
| C=CC(=O)N1CCC(C(=O)N2CCCC2COC)CC1 (centres unmarked) [2-E12, 1-{4-[2-(methoxymethyl)pyrrolidine-1-carbonyl]piperidin-1-yl}prop-2-en-1-one] | 116 |
| C=CC(=O)N(Cc1ccc(F)c(C)c1)CC1(O)CCSCC1 [2-E13, N-[(4-fluoro-3-methylphenyl)methyl]-N-[(4-hydroxythian-4-yl)methyl]prop-2-enamide] | 55.6 |
| C=CC(=O)NCCS(=O)(=O)N1CCOCC1 [2-E14, N-[2-(morpholine-4-sulfonyl)ethyl]prop-2-enamide] | 94.6 |
| C=CC(=O)NCc1nc(C(C)(C)O)n[nH]1 [2-E15, N-{[3-(2-hydroxypropan-2-yl)-1H-1,2,4-triazol-5-yl]methyl}prop-2-enamide] | 116 |
| C=CC(=O)Nc1ccc(-n2nc(C)[nH]c2=O)cc1 [2-E16, N-[4-(3-methyl-5-oxo-4,5-dihydro-1H-1,2,4-triazol-1-yl)phenyl]prop-2-enamide] | 101 |
| C=CC(=O)N1CCCCC(S(C)(=O)=O)C1 (centres unmarked) [2-E17, 1-(3-methanesulfonylazepan-1-yl)prop-2-en-1-one] | 110 |
| C=CC(=O)N1CCCC(CS(=O)(=O)NC)C1 (centres unmarked) [2-E18, N-methyl-1-[1-(prop-2-enoyl)piperidin-3-yl]methanesulfonamide] | 95 |
| C=CC(=O)NC1CCC(n2c(C)ccc2C)CC1 (centres unmarked) [2-E19, N-[4-(2,5-dimethyl-1H-pyrrol-1-yl)cyclohexyl]prop-2-enamide] | 71.1 |
| C=CC(=O)N(C)CC(=O)N1CCCCC1c1nc(C)c(C)s1 (centres unmarked) [2-E20, N-{2-[2-(4,5-dimethyl-1,3-thiazol-2-yl)piperidin-1-yl]-2-oxoethyl}-N-methylprop-2-enamide] | 116 |
| C=CC(=O)Nc1ccc(C(=O)N2CCC[C@@H]2C(=O)OC)cc1 [2-E21, methyl (2R)-1-[4-(prop-2-enamido)benzoyl]pyrrolidine-2-carboxylate] | 104 |
| C=CC(=O)NC(CO)c1cccc(OC)c1 (centres unmarked) [2-E22, N-[2-hydroxy-1-(3-methoxyphenyl)ethyl]prop-2-enamide] | 122 |
| C=CC(=O)NCCn1cc(Cl)c(C(F)(F)F)n1 [2-F03, N-{2-[4-chloro-3-(trifluoromethyl)-1H-pyrazol-1-yl]ethyl}prop-2-enamide] | 81.6 |
| C=CC(=O)N1CCC(C(=O)N2Cc3ccc([N+](=O)[O-])cc3C2)CC1 [2-F04, 1-[4-(5-nitro-2,3-dihydro-1H-isoindole-2-carbonyl)piperidin-1-yl]prop-2-en-1-one] | 82.7 |
| C=CC(=O)N1CCC(C(=O)N2CCCC(NC(=O)C(C)(C)C)C2)CC1 (centres unmarked) [2-F05, 2,2-dimethyl-N-{1-[1-(prop-2-enoyl)piperidine-4-carbonyl]piperidin-3-yl}propanamide] | 75.6 |
| C=CC(=O)NCCC(=O)N1CCN(c2nc(C)cs2)C(C)C1 (centres unmarked) [2-F06, N-{3-[3-methyl-4-(4-methyl-1,3-thiazol-2-yl)piperazin-1-yl]-3-oxopropyl}prop-2-enamide] | 92.9 |
| C=CC(=O)NC1CCOC(c2cnn(C)c2)C1 (centres unmarked) [2-F07, N-[2-(1-methyl-1H-pyrazol-4-yl)oxan-4-yl]prop-2-enamide] | 73 |
| C=CC(=O)N(CC)CC(=O)N1CCCC1c1ccc(F)cc1C (centres unmarked) [2-F08, N-ethyl-N-{2-[2-(4-fluoro-2-methylphenyl)pyrrolidin-1-yl]-2-oxoethyl}prop-2-enamide] | 74.7 |

| SMILES | viability at 48 h, 25 µM [%] |
| --- | --- |
| C=CC(=O)NC1CC(CC(F)(F)F)C1 (centres unmarked) [2-F09, N-[3-(2,2,2-trifluoroethyl)cyclobutyl]prop-2-enamide] | 65.5 |
| C=CC(=O)N1CCC(C(=O)N(C)Cc2cc(C(C)(C)C)[nH]n2)CC1 [2-F10, N-[(5-tert-butyl-1H-pyrazol-3-yl)methyl]-N-methyl-1-(prop-2-enoyl)piperidine-4-carboxamide] | 45.6 |
| C=CC(=O)NCc1cn(C(F)F)c2ccccc12 [2-F11, N-{[1-(difluoromethyl)-1H-indol-3-yl]methyl}prop-2-enamide] | 49 |
| C=CC(=O)N1CCC(C(=O)N2CCCC(CC(N)=O)CC2)CC1 (centres unmarked) [2-F12, 2-{1-[1-(prop-2-enoyl)piperidine-4-carbonyl]azepan-4-yl}acetamide] | 65.1 |
| C=CC(=O)NCc1coc(-c2ccc(C)cc2)n1 [2-F13, N-{[2-(4-methylphenyl)-1,3-oxazol-4-yl]methyl}prop-2-enamide] | 48.2 |
| C=CC(=O)N1CCC(C(=O)N(C)C(C)Cc2ccc(C)cc2)CC1 (centres unmarked) [2-F14, N-methyl-N-[1-(4-methylphenyl)propan-2-yl]-1-(prop-2-enoyl)piperidine-4-carboxamide] | 79.5 |
| C=CC(=O)NCc1cc(Cl)c2c(c1)OCO2 [2-F15, N-[(7-chloro-1,3-dioxaindan-5-yl)methyl]prop-2-enamide] | 50.9 |
| C=CC(=O)N(C)CC(=O)N1CCC(CN2CCCCC2=O)CC1 [2-F16, N-methyl-N-(2-oxo-2-{4-[(2-oxopiperidin-1-yl)methyl]piperidin-1-yl}ethyl)prop-2-enamide] | 57 |
| C=CC(=O)NCC1CNC(=O)c2ccccc21 (centres unmarked) [2-F17, N-[(1-oxo-1,2,3,4-tetrahydroisoquinolin-4-yl)methyl]prop-2-enamide] | 54.8 |
| C=CC(=O)Nc1ccc(-c2nnnn2C)cc1 [2-F18, N-[4-(1-methyl-1H-1,2,3,4-tetrazol-5-yl)phenyl]prop-2-enamide] | 95.5 |
| C=CC(=O)NCc1cnc(C)n1-c1ccccc1 [2-F19, N-[(2-methyl-1-phenyl-1H-imidazol-5-yl)methyl]prop-2-enamide] | 49 |
| C=CC(=O)Nc1ccc(C(=O)N[C@@H]2CCN(C(C)=O)C2)cc1 [2-F20, N-[(3R)-1-acetylpyrrolidin-3-yl]-4-(prop-2-enamido)benzamide] | 73.4 |
| C=CC(=O)Nc1ccnc(OC)c1 [2-F21, N-(2-methoxypyridin-4-yl)prop-2-enamide] | 1.66 |
| C=CC(=O)NCc1ccc(C(=O)N2CCN(c3nc(C)n[nH]3)CC2)cc1 [2-F22, N-({4-[4-(3-methyl-1H-1,2,4-triazol-5-yl)piperazine-1-carbonyl]phenyl}methyl)prop-2-enamide] | 78.3 |
| C=CC(=O)N1CCC[C@H]1c1ccon1 [2-G03, 1-[(2S)-2-(1,2-oxazol-3-yl)pyrrolidin-1-yl]prop-2-en-1-one] | 181 |
| C=CC(=O)N1CCC(C(=O)NCC(C)(C)C=C)CC1 [2-G04, N-(2,2-dimethylbut-3-en-1-yl)-1-(prop-2-enoyl)piperidine-4-carboxamide] | 84.5 |
| C=CC(=O)Nc1nn(CC(C)C)cc1Cl [2-G05, N-[4-chloro-1-(2-methylpropyl)-1H-pyrazol-3-yl]prop-2-enamide] | 103 |
| C=CC(=O)N1Cc2ccccc2C[C@@H]1C(=O)NC1CC1 [2-G06, (3R)-N-cyclopropyl-2-(prop-2-enoyl)-1,2,3,4-tetrahydroisoquinoline-3-carboxamide] | 101 |
| C=CC(=O)N(Cc1cnn(C2CCC2)c1)C1CCCc2occc21 (centres unmarked) [2-G07, N-[(1-cyclobutyl-1H-pyrazol-4-yl)methyl]-N-(4,5,6,7-tetrahydro-1-benzofuran-4-yl)prop-2-enamide] | 103 |
| C=CC(=O)NCCc1cscn1 [2-G08, N-[2-(1,3-thiazol-4-yl)ethyl]prop-2-enamide] | 87.1 |
| C=CC(=O)N(C)Cc1cccc(Cl)c1 [2-G09, N-[(3-chlorophenyl)methyl]-N-methylprop-2-enamide] | 60.6 |
| C=CC(=O)N1CCC(C(=O)NCc2c[nH]cn2)CC1 [2-G10, N-[(1H-imidazol-4-yl)methyl]-1-(prop-2-enoyl)piperidine-4-carboxamide] | 98.7 |
| C=CC(=O)Nc1cc(NC(=O)c2cnn(-c3ccccc3)c2)ccc1F [2-G11, N-[4-fluoro-3-(prop-2-enamido)phenyl]-1-phenyl-1H-pyrazole-4-carboxamide] | 0.749 |
| C=CC(=O)NCCC(=O)Nc1c(C)c(C)nn1C [2-G12, N-{2-[(1,3,4-trimethyl-1H-pyrazol-5-yl)carbamoyl]ethyl}prop-2-enamide] | 93 |
| C=CC(=O)N(Cc1c(C)nn(CC)c1C)c1ccc2c(c1)COC2 [2-G13, N-(1,3-dihydro-2-benzofuran-5-yl)-N-[(1-ethyl-3,5-dimethyl-1H-pyrazol-4-yl)methyl]prop-2-enamide] | 80.2 |
